Data on 1 compound can be found in publication PMC7876453, “Targeting Indoleamine 2,3-Dioxygenase in Cancer Models Using the Novel Small Molecule Inhibitor NTRC 3883-0” (Frontiers in Immunology, 2021).

One data set concerns the target T1, mIDO1 (Mus musculus, UniProt P28776).
T1 construct: Full-length recombinant human and mouse IDO1 were expressed in Escherichia coli with a hexahistidine tag at the N-terminus; hexahistidine (N); made in house; host or cells: Escherichia coli
Kind of data set: mouse IDO1 biochemical assay (NFK GreenScreen).

Data set [1] in a line: plasma protein binding, dog. It is filed as in vitro ADME. Here is the method: Supplement DataSheet_1.docx, table 2: Table S2. Pharmacokinetic parameters of NTRC 3883-0 observed in mouse, rat, monkey and dog, and predicted for humans using allometric scaling. Data in bold are measured, while data in italics are calculated or predicted (for humans). The clearance (Cl) and volume of distribution at steady state (Vss | column: Dog

The target in a further data set is HEK-hIDO1 (Homo sapiens, UniProt P14902). Kind of data set: cell-based assay, Trp-catabolizing activity in HEK-hIDO1 cells.
Data set [2] is described as follows: human pharmacokinetics predicted by allometric scaling. As to conditions: predicted parameters, assuming 100% bioavailability. Here is the method:
Pharmacokinetic properties of NTRC 3883-0 were determined in plasma following single oral (p.o.) and i.v. administration to male CD-1 mice (n = 6 per treatment group with three mice sampled per time point), Wistar rats (n = 3), cynomolgus monkey (n = 1) and Beagle dogs (n = 3). Formulations were prepared in DMSO, Kolliphor® EL, 5% D-mannitol in Elix water at a volume ratio of 1:1:8 for i.v. administration, and in 0.5% gelatin, 5% D-mannitol in Elix water for p.o. administration. Plasma samples were collected at eight to eleven time points up to 24 h after administration. Pharmacokinetic properties and required dosing in humans were predicted by allometric scaling by Karin Jorga Life Science Consulting (Basel, Switzerland) ( Figure S2 and Table S2 ).
Table S2. Pharmacokinetic parameters of NTRC 3883-0 observed in mouse, rat, monkey and dog, and predicted for humans using allometric scaling. Data in bold are measured, while data in italics are calculated or predicted (for humans). The clearance (Cl) and volume of distribution at steady state (Vss) in humans are predicted based on extrapolation of the parameters in the four species as shown in Supplementary Figure S2. […] The half-life (t1/2) in humans was predicted as Vss/Cl. […] ND = not determined.

Sequence of HEK-hIDO1 (P14902 whole entry): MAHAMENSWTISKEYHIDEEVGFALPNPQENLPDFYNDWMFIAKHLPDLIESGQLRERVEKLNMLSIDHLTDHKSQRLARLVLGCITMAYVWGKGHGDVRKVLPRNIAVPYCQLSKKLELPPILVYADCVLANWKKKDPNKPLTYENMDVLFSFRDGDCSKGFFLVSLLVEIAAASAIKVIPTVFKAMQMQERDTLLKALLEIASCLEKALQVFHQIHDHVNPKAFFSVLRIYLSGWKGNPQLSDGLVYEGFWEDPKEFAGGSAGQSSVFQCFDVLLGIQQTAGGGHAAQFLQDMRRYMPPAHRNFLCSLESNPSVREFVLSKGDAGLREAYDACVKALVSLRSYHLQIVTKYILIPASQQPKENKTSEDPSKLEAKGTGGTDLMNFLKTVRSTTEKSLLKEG
T1 sequence (P28776 whole entry): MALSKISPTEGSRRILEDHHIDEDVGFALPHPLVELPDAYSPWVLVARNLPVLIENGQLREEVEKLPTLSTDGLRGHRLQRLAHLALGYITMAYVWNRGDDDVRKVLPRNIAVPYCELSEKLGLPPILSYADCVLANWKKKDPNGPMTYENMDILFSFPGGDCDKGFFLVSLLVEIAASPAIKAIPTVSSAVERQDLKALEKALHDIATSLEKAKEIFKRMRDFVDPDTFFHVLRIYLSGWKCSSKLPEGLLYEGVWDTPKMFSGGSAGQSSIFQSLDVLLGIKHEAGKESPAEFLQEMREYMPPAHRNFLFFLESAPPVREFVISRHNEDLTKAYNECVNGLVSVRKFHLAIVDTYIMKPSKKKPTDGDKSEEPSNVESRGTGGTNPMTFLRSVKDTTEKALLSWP

Broadly, the IC50 is the point on the concentration scale where inhibition reaches its midpoint. A low value points to greater potency in that assay. Broadly, the fraction unbound is the share of the substance not bound to proteins or other matrix. Turning to `O=C1CN(C(=O)c2c(F)cccc2F)[C@H](c2cccc(Br)c2)N1O` [NTRC 3883-0], the half-inhibitory concentration (IC50) is 93 nM against mIDO1 and 119 nM at HEK-hIDO1. In data set [1], this compound had a fraction unbound of 0.21. In addition, the “minimum dose required to reach a target concentration of 1 μM on average during the dosing interval” value in data set [2] was 1725 mg per day.
